Measured values: patent US20140315973A1, “PARP-1 INHIBITORS” (priority 2010, published 2014)

Experiments:
[1] = system: HBV core promoter; assay: Dual-luciferase reporter assay of HBV core promoter; format: cell-based, HBV genotype A
Excerpt: The HBV core promoter deletions were cloned using a multi-step strategy. First, the wild-type core promoter from HBV genotype A was inserted via KpnI and HindIII sites on the PGL3 Basic vector. Using this as the template, PGLF (5′ TCCCCAGTGCAAGTGCAGG) was used with reverse primer BX, where “X” denotes the deletion number and contains the nucleotide sequence flanking the 3′ end of the deletion. This amplifies the 5′ half of mutant core promoter. Primer CX containing nucleotide sequences flanking the 5′ end of the deletion site was then used with reverse primer PGLR (5′ […]) to synthesize the 3′ end of the mutant promoter. The 2 halves were annealed via their complementary sequences and amplified using primers PGLF and PGLR. PCR was performed using the Expand High Fidelity PCR System (Roche), and ran on 1% agarose gels in TBE buffer. DNA of appropriate sizes were extracted using the Qiaquick Gel Extraction Kit (Qiagen), double-digested with enzymes from New England BioLabs, then annealed using the Quick Ligation Kit.
Assays were performed with the Dual-Luciferase® Reporter Assay System (Promega) with modifications. HepG2 cells were seeded 18 hours prior to transfection in 24-well plates in triplicates at a density of 1.5×10^5 cells per well. Transfection was performed with 2.2 μl Lipofectamine 2000 (Invitrogen), 1 μg of PGL3 Basic construct plasmid and 15 ng of Renilla-luciferase construct per well. Additionally, 250 ng of over-expression plasmids for PARP-1 mutants were used when indicated. Transfected cells were lysed with 60 μl lysis buffer at 37° C. on a shaking incubator for 20 minutes after washing thrice with ice-cold PBS 30 hours post-transfection and 50 μl of the lysate was transferred on ice into black 96-well plates with clear bottoms (Corning), and luminescence measured with the GloMax® Multi-Microplate Multimode Reader (Promega).

[2] = system: HepG2 cells; assay: Viable HBV-RFP transfected HepG2 cells; format: cell-based; conditions: 15 μM, 72 hours after PARP inhibition
Excerpt: (§1) The coding sequence for red fluorescent protein (RFP) was cut from the pTurboFP635N (Evrogen) and inserted into the pcDNA3.1+ vector containing the HBV construct into the MCS via KpnI and NotI sites.

[3] = system: HBV; assay: HBV transcripts in HepG2 cells transfected with HBV-RFP; format: cell-based, HBV genotype A; conditions: 15 μM, added 24 hours after transfection, 48 hours later
Excerpt: Full-length replicative HBV genotype A (approximately 1.1X HBV genome starting from nucleotide 1535, ending at nucleotide 1930) driven by its own core promoter cloned from another construct and inserted into pcDNA3.1+ via the MfeI and MluI restriction sites, […] of the CMV promoter. Primers used are as follows: […]
as §1

[4] = system: breast or ovarian cancer; conditions: cited from earlier work

SMILES: NC(=O)c1cccc(N)c1 [3-AB, 3-aminobenzamide]
- transcription (luciferase expression) at wild-type HBV core promoter ([1]; HepG2, inhibitor added 24 hours after transfection): increased transcription at the HBV core promoter in a dose-dependent manner
- luciferase expression, mutant HBV core promoter with deletion of the PARP-1 binding site (Del-PARP1 motif) ([1]; HepG2 and Huh-7): negligible effect
- luciferase expression, wild-type HBV core promoter ([1]; Huh-7): increased luciferase expression

SMILES: CN(C)CC(=O)Nc1ccc2[nH]c(=O)c3ccccc3c2c1 [PJ-34]
- relative percentage of viable cells that were HBV-transfected vs DMSO control [2]: significantly higher
- increase in relative amounts of HBV transcripts [3]: more than 3 fold

SMILES: O=C(c1cc(Cc2n[nH]c(=O)c3ccccc23)ccc1F)N1CCN(C(=O)C2CC2)CC1 [olaparib]
- durable objective antitumor activity ([4]; 60 patients, including 22 BRCA mutation carriers): observed only in confirmed carriers of a BRCA1 or BRCA2 mutation
- BRCA carriers with ovarian, breast, or prostate cancers showing a clinical benefit ([4]; Twelve of 19 BRCA carriers): 63%
- side-effect profile ([4]; phase 1, orally active): acceptable side-effect profile
